Laboratory results taken from ChEMBL document CHEMBL3745615, “Synthesis, characterization and biological evaluation of anti-cancer indolizine derivatives via inhibiting β-catenin activity and activating p53” (2016).

Experiments:
A549 [1] = test: Antiproliferative activity against human A549 cells after 3 days by CCK8 assay; format: functional; set-up: concentration or dose not given beside the values
[2] = target: T1, Catenin beta-1 (Homo sapiens) (UniProt P35222); test: Inhibition of beta-catenin transcriptional activity in human A549 cells after 24 hrs by luciferase reporter assay; format: cell-based; set-up: concentration or dose not given beside the values
T1 sequence (whole entry): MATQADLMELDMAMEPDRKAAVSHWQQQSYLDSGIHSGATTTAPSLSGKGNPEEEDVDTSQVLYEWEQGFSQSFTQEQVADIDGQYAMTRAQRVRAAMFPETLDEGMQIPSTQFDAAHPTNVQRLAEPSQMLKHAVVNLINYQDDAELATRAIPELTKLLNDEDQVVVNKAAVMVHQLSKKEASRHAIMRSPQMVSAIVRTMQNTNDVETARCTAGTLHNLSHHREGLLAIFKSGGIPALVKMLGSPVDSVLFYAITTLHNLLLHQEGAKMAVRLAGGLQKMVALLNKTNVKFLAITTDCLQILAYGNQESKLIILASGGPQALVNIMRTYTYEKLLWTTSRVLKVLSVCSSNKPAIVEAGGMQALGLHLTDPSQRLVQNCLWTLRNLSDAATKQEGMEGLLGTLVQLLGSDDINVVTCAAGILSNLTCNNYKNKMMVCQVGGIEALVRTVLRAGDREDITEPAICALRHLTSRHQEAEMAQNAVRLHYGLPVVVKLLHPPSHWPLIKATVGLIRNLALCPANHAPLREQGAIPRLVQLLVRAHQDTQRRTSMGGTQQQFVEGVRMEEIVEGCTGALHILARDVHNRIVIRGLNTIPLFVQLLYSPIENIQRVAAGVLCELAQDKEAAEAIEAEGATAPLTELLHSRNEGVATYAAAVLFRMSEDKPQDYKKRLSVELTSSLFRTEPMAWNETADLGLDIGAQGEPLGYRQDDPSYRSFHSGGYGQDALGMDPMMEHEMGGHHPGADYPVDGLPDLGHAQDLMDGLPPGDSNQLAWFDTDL

A549 [3] = test: Induction of apoptosis in human A549 cells at 3 uM by annexin V staining-based flow cytometric analysis; format: functional, cell-based; conditions: TDE = time-dependent effect
A549 [4] = test: Induction of apoptosis in human A549 cells assessed as dead cells at 3 uM after 1 day by annexin V staining-based flow cytometric analysis (reference value: 0.2%); format: functional
A549 [5] = test: Induction of apoptosis in human A549 cells assessed as late apoptotic cells at 3 uM after 1 day by annexin V staining-based flow cytometric analysis (reference value: 0.5%); format: functional
A549 [6] = test: Induction of apoptosis in human A549 cells assessed as live cells at 3 uM after 1 day by annexin V staining-based flow cytometric analysis (reference value: 98%); format: functional
A549 [7] = test: Induction of apoptosis in human A549 cells assessed as early apoptotic cells at 3 uM after 1 day by annexin V staining-based flow cytometric analysis (reference value: 1.3%); format: functional
A549 [8] = test: Induction of apoptosis in human A549 cells assessed as dead cells at 3 uM after 2 days by annexin V staining-based flow cytometric analysis (reference value: 0.2%); format: functional
A549 [9] = test: Induction of apoptosis in human A549 cells assessed as late apoptotic cells at 3 uM after 2 days by annexin V staining-based flow cytometric analysis (reference value: 0.5%); format: functional
A549 [10] = test: Induction of apoptosis in human A549 cells assessed as live cells at 3 uM after 2 days by annexin V staining-based flow cytometric analysis (reference value: 98%); format: functional
A549 [11] = test: Induction of apoptosis in human A549 cells assessed as early apoptotic cells at 3 uM after 2 days by annexin V staining-based flow cytometric analysis (reference value: 1.3%); format: functional
A549 [12] = test: Induction of apoptosis in human A549 cells assessed as dead cells at 3 uM after 3 days by annexin V staining-based flow cytometric analysis (reference value: 0.2%); format: functional
A549 [13] = test: Induction of apoptosis in human A549 cells assessed as late apoptotic cells at 3 uM after 3 days by annexin V staining-based flow cytometric analysis (reference value: 0.5%); format: functional
A549 [14] = test: Induction of apoptosis in human A549 cells assessed as live cells at 3 uM after 3 days by annexin V staining-based flow cytometric analysis (reference value: 98%); format: functional
A549 [15] = test: Induction of apoptosis in human A549 cells assessed as early apoptotic cells at 3 uM after 3 days by annexin V staining-based flow cytometric analysis (reference value: 1.3%); format: functional
A549 [16] = test: Induction of apoptosis in human A549 cells assessed as up regulation of phosphorylated p53 (S15) level at 3 uM incubated for 12 to 24 hrs by Western blot analysis; format: functional, cell-based; conditions: TDE = time-dependent effect
A549 [17] = test: Induction of apoptosis in human A549 cells assessed as up regulation of phosphorylated p53 (S46) level at 3 uM incubated for 12 to 24 hrs by Western blot analysis; format: functional, cell-based; conditions: TDE = time-dependent effect
A549 [18] = test: Induction of apoptosis in human A549 cells assessed as up regulation of phosphorylated p53 (S392) level at 3 uM incubated for 12 to 24 hrs by Western blot analysis; format: functional, cell-based; conditions: TDE = time-dependent effect

Compound	Activity [2]	Activity (A549 [1])	further results
Cc1c(C(=O)O)cc2cccn2c1C(=O)c1ccccc1	79.1%	101.93%	–
COc1ccc(C(=O)c2c(N)c(C#N)cc3cccn23)cc1	7.03%	Dose-dependent effect	Activity (A549 [1]; record 2): 0%; Activity (A549 [3]): tde; Activity (A549 [4]): 1.15%; Activity (A549 [5]): 2.3%; Activity (A549 [6]): 88.55%; Activity (A549 [7]): 8%; Activity (A549 [8]): 2.25%; Activity (A549 [9]): 9.7%; Activity (A549 [10]): 73.35%; Activity (A549 [11]): 14.7%; Activity (A549 [12]): 0.95%; Activity (A549 [13]): 43.65%; Activity (A549 [14]): 39.8%; Activity (A549 [15]): 15.6%; Activity (A549 [16]): tde; Activity (A549 [17]): tde; Activity (A549 [18]): tde
CC(=O)c1cc2cccn2c(C(=O)c2ccccc2)c1C	90.3%	92.02%	–
O=C1CCCc2c1cc1cccn1c2C(=O)c1ccc(Cl)cc1	64.5%	47.73%	–
O=C1CCCc2c1cc1cccn1c2C(=O)c1ccc(F)cc1	66.2%	40.94%	–
CC(=O)c1cc2cccn2c(C(=O)c2ccc(Cl)cc2)c1C	52.9%	79.46%	–
COc1ccc(C(=O)c2c3c(cc4cccn24)C(=O)CCC3)cc1	67.5%	51.36%	–
O=C1CCCc2c1cc1cccn1c2C(=O)c1ccccc1	67.3%	55.44%	–
CCOC(=O)c1c(N)c(C#N)cc2cccn12	47%	85.35%	–

More lines, main results first:

Activity [2]	Compound	Activity (A549 [1])	further results
22.2%	N#Cc1cc2cccn2c(C(=O)c2ccc(F)cc2)c1N	1.51%	–
26.2%	N#Cc1cc2cccn2c(C(=O)c2ccccc2)c1N	13.75%	–
69.1%	N#Cc1cc2cccn2c(C(=O)c2ccc(OCc3ccccc3)cc2)c1N	35.05%	–
86.4%	CCOC(=O)c1cc2cccn2c(C(=O)c2ccc(OC)cc2)c1N	98.46%	–
13.6%	N#Cc1cc2cccn2c(C(=O)c2ccc(Cl)cc2)c1N	2.87%	–
